{
  "source": "patent US11466044B2",
  "about": "(WAYNE STATE UNIVERSITY, priority 2017, dated 2022)",
  "key": {"M. smegmatis SZ380": {"test_system": "M. smegmatis SZ380", "test": "MIC by broth microdilution, M. smegmatis", "details": "Mycolicibacterium smegmatis"}, "P aeruginosa": {"test_system": "P aeruginosa", "test": "MIC by broth microdilution, P aeruginosa isolates", "type": "cell-based, Pseudomonas aeruginosa", "details": "strain AG220 Pseudomonas aeruginosa ATCC27853; read-out: MIC AG220 P. aerugin"}, "[1]": {"test_system": "Klebsiella pneumonia AG215", "test": "MIC by broth microdilution, Klebsiella pneumonia", "type": "cell-based", "details": "Klebsiella pneumoniae; strain AG215 Klebsiella pneumonia; read-out: MIC AG215 K. pneumon"}, "[2]": {"test_system": "Acinetobacter baumannii pittii AG225", "test": "MIC by broth microdilution, Acinetobacter baumannii", "type": "cell-based", "details": "strain AG225 Acinetobacter baumannii pittii"}, "[3]": {"test_system": "Enterobacter cloacae AG290", "test": "MIC by broth microdilution, Enterobacter cloacae", "type": "cell-based", "details": "strain AG290 Enterobacter cloacae; read-out: MIC AG290 E. cloacae"}, "[4]": {"test_system": "mitochondrial ribosome (human chimeric)", "type": "biochemical", "description": "(§1) The antiribosomal activity of these compounds was investigated with cell-free translation assays using both wild type bacterial ribosomes and hybrid ribosomes carrying eukaryotic decoding A sites enabling the prediction of selectivity."}, "[5]": {"test_system": "cytosolic ribosome (human chimeric)", "type": "biochemical", "description": "as §1"}, "[6]": {"details": "Casinelli et al., J Antibiotics 1978, 31, 378 and 382; cited from earlier work"}, "[7]": {"test_system": "A1555G mutant mitochondrial ribosome (human chimeric)", "test": "in-vitro translation assay, human chimeric ribosomes, A1555G mutant mitochondrial decoding site", "type": "biochemical", "details": "Table 3 (Example 3)", "description": "as §1"}, "N. gonorrhoeae": {"test_system": "N. gonorrhoeae", "test": "Disk diffusion, N. gonorrhoeae", "type": "cell-based", "details": "Neisseria gonorrhoeae"}, "[8]": {"test_system": "E coli carrying specific resistance determinants", "test": "MIC by broth microdilution, E coli carrying specific resistance determinants", "type": "cell-based", "details": "Escherichia coli"}, "[9]": {"test_system": "wild type bacterial ribosomes", "test": "in-vitro translation assay, bacterial ribosomes", "type": "biochemical", "description": "as §1"}, "MRSA": {"test_system": "MRSA", "test": "MIC by broth microdilution, MRSA isolates", "type": "cell-based", "details": "Staphylococcus aureus, MRSA, Table 1 (Example 3)"}, "M. abscessus": {"test_system": "M. abscessus", "test": "MIC by broth microdilution, M. abscessus", "type": "cell-based", "details": "Mycobacteroides abscessus"}, "E coli wild type": {"test_system": "E coli wild type", "test": "MIC by broth microdilution, wild type E coli", "type": "cell-based", "details": "Escherichia coli"}},
  "note": "Where two headings read alike, the source gives them in different places.",
  "data": [
    {"compound": "CCNC1C(OC2C(N)CC(N)C(O)C2OC2OC(CO)C(OC3OC(CN)C(O)C(O)C3N)C2O)OC(CO)C(O)C1O", "note": "(stereo not drawn) [Compound 127]", "values": [
      {"measurement": "MIC", "setting": "M. smegmatis SZ380; SZ380, read-out: MIC M. smegmatis SZ380 WT, SZ380 WT, Table 5 (Example 3)", "result": 4, "unit": "µg/mL"},
      {"measurement": "MIC", "setting": "M. smegmatis SZ380; SZ380, read-out: MIC SZ380 M. smegmatis, strain SZ380 Mycobacterium smegmatis", "result": 4, "unit": "µg/mL"},
      {"measurement": "MIC", "setting": "P aeruginosa", "result": "> 64", "unit": "µg/mL"},
      {"measurement": "MIC", "setting": "[1]", "result": 2, "unit": "µg/mL"},
      {"measurement": "MIC", "setting": "[2]", "result": 4, "unit": "µg/mL"},
      {"measurement": "MIC", "setting": "[3]", "result": "2 to 4", "unit": "µg/mL"},
      {"measurement": "Selectivity for Binding to the Bacterial Ribosome over the Mitochondrial Ribosome", "setting": "[4]; Table 3 (Example 3)", "result": 4715},
      {"measurement": "IC50", "setting": "[4]; mitochondrial, Table 4 (Example 3), read-out: IC50 Mit", "result": 141, "unit": "µM"},
      {"measurement": "Selectivity for Binding to the Bacterial Ribosome over the Cytosolic Ribosome", "setting": "[5]; Table 3 (Example 3)", "result": 918},
      {"measurement": "IC50", "setting": "[5]; cytosolic, Table 4 (Example 3), read-out: IC50 Cyt", "result": 28, "unit": "µM"},
      {"measurement": "antibiotic potency compared with the parent compounds, in words", "setting": "[6]", "result": "comparable antibiotic potency to the parent compounds"},
      {"measurement": "Selectivity for Binding to the Bacterial Ribosome over the Mutant Mitochondrial Ribosome", "setting": "[7]", "result": 1804},
      {"measurement": "zone of inhibition at 25 nmol/disc", "setting": "N. gonorrhoeae", "result": 9, "unit": "mm"},
      {"measurement": "MIC", "setting": "[8]; read-out: MIC E. coli AAC(2′) AG106", "result": 2, "unit": "µg/mL"},
      {"measurement": "MIC", "setting": "[8]; read-out: MIC E. coli AAC(2′) pH434", "result": 4, "unit": "µg/mL"},
      {"measurement": "MIC", "setting": "[8]; read-out: MIC E. coli pGB2armA armA", "result": "4 to 8", "unit": "µg/mL"},
      {"measurement": "MIC", "setting": "[8]; read-out: MIC E. coli pH434 AAC(2′)-Ib", "result": 4, "unit": "µg/mL"},
      {"measurement": "IC50", "setting": "[9]; bacterial ribosome, Table 4 (Example 3), read-out: IC50 Bac", "result": 0.03, "unit": "µM"},
      {"measurement": "selectivity for the bacterial ribosome over mitochondrial (wild type, A1555G mutant) and cytosolic ribosomes, in words", "setting": "[9]; compared with the parent compound", "result": "increased selectivity for the bacterial ribosome"},
      {"measurement": "MIC", "setting": "MRSA; clinical isolate AG038, read-out: MIC MRSA AG038", "result": 8, "unit": "µg/mL"},
      {"measurement": "MIC", "setting": "MRSA; clinical isolate AG039, read-out: MIC MRSA AG039", "result": "> 128", "unit": "µg/mL"},
      {"measurement": "MIC", "setting": "MRSA; clinical isolate AG042, read-out: MIC MRSA AG042", "result": "> 128", "unit": "µg/mL"},
      {"measurement": "MIC", "setting": "MRSA; clinical isolate AG044, read-out: MIC MRSA AG044", "result": "4 to 8", "unit": "µg/mL"},
      {"measurement": "MIC", "setting": "M. abscessus; ATCC19977, ATCC 19977 WT, Table 5 (Example 3), read-out: MIC M. abscessus ATCC 19977 WT", "result": 32, "unit": "µg/mL"},
      {"measurement": "MIC", "setting": "M. abscessus; read-out: MIC M. abscessus engineered Δeis2", "result": 0.5, "unit": "µg/mL"},
      {"measurement": "MIC", "setting": "M. abscessus; ATCC, Table 4 (Example 3), read-out: MIC M. abscessus ATCC", "result": 32, "unit": "µg/mL"},
      {"measurement": "MIC", "setting": "M. abscessus; Clin. Isol., Table 4 (Example 3), read-out: MIC M. abscessus Clin. Isol.", "result": 64, "unit": "µg/mL"},
      {"measurement": "MIC", "setting": "E coli wild type; ATCC25922, strain AG212 E. coli (ATCC25922), read-out: MIC AG212 E. coli", "result": 4, "unit": "µg/mL"},
      {"measurement": "MIC", "setting": "E coli wild type; WT, Table 4 (Example 3), read-out: MIC E. coli WT", "result": 2, "unit": "µg/mL"},
      {"measurement": "MIC", "setting": "E coli wild type; WT, Table 5 (Example 3), read-out: MIC E. coli WT", "result": 2, "unit": "µg/mL"},
      {"measurement": "MIC", "setting": "E coli wild type; clinical isolate AG001, Table 1 (Example 3), read-out: MIC E coli AG001", "result": 16, "unit": "µg/mL"},
      {"measurement": "MIC", "setting": "E coli wild type; clinical isolate AG003, Table 1 (Example 3), read-out: MIC E coli AG003", "result": 16, "unit": "µg/mL"},
      {"measurement": "MIC", "setting": "E coli wild type; clinical isolate AG055, Table 1 (Example 3), read-out: MIC E coli AG055", "result": 16, "unit": "µg/mL"}
    ]}
  ]
}
